Measured values taken from patent US9018142B2, “Oil-field biocide method utilizing a peracid” (PeroxyChem LLC, priority 2008, dated 2015).

Columns and labels:
[1] = test system: Desulfotomaculum nigrificans (ATCC 19858); assay: D. nigrificans growth after biocide exposure in 0.1 wt % polyacrylamide; type: cell-based; set-up: key to D. nigrificans Growth Results / D. nigrificans Growth Results, Neutral Control: positive (+); negative (NEG)
Procedure: Example 2 illustrates the biocidal efficacy of peracetic acid, compared with glutaraldehyde, against another strain of sulfur-reducing bacteria, Desulfotomaculum nigrificans, present in an aqueous solution also containing 0.1 wt % polyacrylamide polymer. A range of peracetic acid and glutaraldehyde concentrations were evaluated for biocidal efficacy: 1, 5, 10, 25, 50, 75, 100, 200 and 300 ppm peracetic acid and the same concentrations for glutaraldehyde (except that 300 ppm was omitted).
The dilute aqueous polyacrylamide was prepared using an aqueous 50 wt % polyacrylamide solution (Sigma-Aldrich, St. Louis, Mo.) and diluting the polyacrylamide with deionized water to obtain 0.1 wt % polyacrylamide in water. The peracetic acid was Vigor Ox® SP-15 antimicrobial agent, containing about 15-17 wt % peracetic acid, 9-11 wt % hydrogen peroxide and 33-38 wt % acetic acid in water (FMC Corporation, Philadelphia, Pa.), and this peracetic acid solution was diluted to the desired concentration within the range 1 to 300 ppm peracetic acid for the various evaluations. The glutaraldehyde used in this Example 2 was a 50 wt % glutaraldehyde solution in water (Alfa Aesar, Ward Hill, Mass.), diluted with deionized water to the desired concentration within the range 1 to 200 ppm for the evaluations.
The bacterial strain used in this Example 2 was the sulfur-reducing bacterium Desulfotomaculum nigrificans (ATCC 19858 from American Type Culture Collection, Manassas, Va.). A working inoculum for each of the three studies described below was prepared by the following procedure. Baar's medium for sulfate reducers was inoculated with D. nigrificans from a cryogenic tube, grown at 50° C. anaerobically for a period sufficient to observe good growth of the culture (evident by blackening of the tube), between 2-7 days. This D. nigrificans culture was used as the working inoculum for each of the studies described below.
The methodology used in this Example 2 was as follows. A sterilized screw-cap tube containing 9.5-10 ml 0.1 wt % polyacrylamide was dosed with an appropriate amount of peracetic acid (or glutaraldehyde) to provide the desired peracetic acid (or glutaraldehyde) concentration (e.g., 1 to 300 ppm peracetic acid) in 10 ml 0.1 wt % polyacrylamide required for the study. The tubes were then vortex mixed and 0.1 ml D. nigrificans inoculum was added and again vortex mixed. The initial inoculation level was estimated as about 2.6×10^6 CFU/tube. Timing of the exposure period (e.g., 1 minute to 1 day) was begun when the D. nigrificans inoculum was added.
After the exposure period had elapsed, 1 ml of the treated mixture was added to a second tube containing 9 ml of Dey-Engley (D/E) neutralizing broth and vortex mixed. After about 5-8 minutes had elapsed, 1 ml of the neutralized solution was added to yet another tube containing 9 ml of Baar's modified medium for sulfate reducers. This tube was vortex mixed and then incubated anaerobically at 50° C., with the screw cap loosened, using an AnaeroPack (Mitsubishi Gas Chemical America, Inc., New York, N.Y.) in an anaerobic jar.
Growth controls were also carried out in the studies of this Example 2, using the following procedure. A screw-cap tube containing 10 ml of 0.1 wt % polyacrylamide was inoculated with 0.1 ml of D. nigrificans culture and then diluted in D/E neutralizing broth after the exposure period, vortex mixed, and then diluted in Baar's medium as described above. The control tubes were incubated at 50° C., also as described above, and monitored for growth after two days.
Neutralizing controls were also carried out for the peracetic acid and glutaraldehyde treatment agents to confirm that D/E neutralizing broth (which contains sodium bisulfite and […] among its neutralizing agents) was capable of neutralizing either peracetic acid or glutaraldehyde at the highest concentration used in each study. […]

[2] = test system: Desulfovibrio desulfuricans (vulgaris) (ATCC 7757); assay: Biocidal efficacy against sulfur-reducing bacteria in 0.1 wt % polyacrylamide (colony population analysis, CFU); type: cell-based; conditions: not a side-by-side comparative study
Procedure: Example 1 illustrates the biocidal efficacy of peracetic acid, compared with glutaraldehyde, against a strain of sulfur-reducing bacteria, Desulfovibrio desulfuricans (vulgaris), present in an aqueous solution also containing 0.1 wt % polyacrylamide polymer. A range of peracetic acid and glutaraldehyde concentrations were evaluated for biocidal efficacy: 5, 10, 30, 150 and 300 ppm peracetic acid and 25 and 500 ppm glutaraldehyde.
The dilute aqueous polyacrylamide was prepared using a 50 wt % polyacrylamide solution in water, with the polyacrylamide having an average molecular weight ˜10,000 (Aldrich No. 434949, Sigma-Aldrich, St. Louis, Mo.). The peracetic acid was Vigor Ox® SP-15 antimicrobial agent, containing about 15-17 wt % peracetic acid, 9-11 wt % hydrogen peroxide and 33-38 wt % acetic acid in water (FMC Corporation, Philadelphia, Pa.), and this peracetic acid solution was diluted to 5, 10, 30, 150 and 300 ppm peracetic acid for the various evaluations. The glutaraldehyde used in this Example 1 was a 25 wt % glutaraldehyde solution in water (Sigma-Aldrich No. G4004, Sigma-Aldrich, St. Louis, Mo.), diluted to either 25 or 500 ppm for the evaluations. […]
Peracetic acid and glutaraldehyde were next evaluated for biocidal efficacy against the sulfur-reducing bacterium Desulfovibrio vulgaris. […]

[3] = at 25° C.; cited from earlier work
[4] = first study, 1 ppm, 1 minute exposure
[5] = first study, 1 ppm, 1 hour exposure
[6] = first study, 1 ppm, 1 day exposure
[7] = first study, 5 ppm, 1 minute exposure
[8] = first study, 5 ppm, 1 hour exposure
[9] = first study, 5 ppm, 1 day exposure
[10] = first study, 10 ppm, 1 minute exposure
[11] = first study, 10 ppm, 1 hour exposure
[12] = first study, 10 ppm, 1 day exposure
[13] = first study, 25 ppm, 1 minute exposure
[14] = first study, 25 ppm, 1 hour exposure
[15] = first study, 25 ppm, 1 day exposure
[16] = first study, 50 ppm biocide neutralized in D/E neutralizing broth before inoculation
[17] = first study, 50 ppm, 1 minute exposure
[18] = first study, 50 ppm, 1 hour exposure
[19] = first study, 50 ppm, 1 day exposure
[20] = second study, 50 ppm, 10 minutes exposure
[21] = second study, 50 ppm, 1 hour exposure
[22] = second study, 50 ppm, 1 day exposure
[23] = second study, 75 ppm, 10 minutes exposure
[24] = second study, 75 ppm, 1 hour exposure
[25] = second study, 75 ppm, 1 day exposure
[26] = second study, 100 ppm, 10 minutes exposure
[27] = second study, 100 ppm, 1 hour exposure
[28] = second study, 100 ppm, 1 day exposure
[29] = second study, 200 ppm biocide neutralized in D/E neutralizing broth before inoculation
[30] = second study, 200 ppm, 10 minutes exposure
[31] = second study, 200 ppm, 1 hour exposure
[32] = second study, 200 ppm, 1 day exposure

O=CCCCC=O [Glutaraldehyde, glutaraldehyde, reference compound]
no biocidal control: biocidal control of D. nigrificans ([1]; first study, any of the concentrations (1 to 50 ppm) or exposure times (1 minute, 1 hour, 1 day)) | biocidal control of D. nigrificans ([1]; second study, any of the concentrations (50 to 200 ppm) or exposure times (10 minutes, 1 hour, 1 day))
+: D. nigrificans Growth Results [1, 4] | D. nigrificans Growth Results [1, 5] | D. nigrificans Growth Results [1, 6] | D. nigrificans Growth Results [1, 7] | D. nigrificans Growth Results [1, 8] | D. nigrificans Growth Results [1, 9] | D. nigrificans Growth Results [1, 10] | D. nigrificans Growth Results [1, 11] | D. nigrificans Growth Results [1, 12] | D. nigrificans Growth Results [1, 13] | D. nigrificans Growth Results [1, 14] | D. nigrificans Growth Results [1, 15] | D. nigrificans Growth Results, Neutral Control [1, 16] | D. nigrificans Growth Results [1, 17] | D. nigrificans Growth Results [1, 18] | D. nigrificans Growth Results [1, 19] | D. nigrificans Growth Results [1, 20] | D. nigrificans Growth Results [1, 21] | D. nigrificans Growth Results [1, 22] | D. nigrificans Growth Results [1, 23] | D. nigrificans Growth Results [1, 24] | D. nigrificans Growth Results [1, 25] | D. nigrificans Growth Results [1, 26] | D. nigrificans Growth Results [1, 27] | D. nigrificans Growth Results [1, 28] | D. nigrificans Growth Results, Neutral Control [1, 29] | D. nigrificans Growth Results [1, 30] | D. nigrificans Growth Results [1, 31] | D. nigrificans Growth Results [1, 32]

Peracetic acid
some biocidal activity: biocidal activity against D. nigrificans ([1]; first study, 50 ppm, one hour, NEG for one of the two replicates)
provided biocidal control: biocidal control of D. nigrificans ([1]; first study, 25 ppm and 50 ppm, 1 day exposure) | biocidal control of D. nigrificans ([1]; second study, 50, 75, 100 and 200 ppm, 1 day exposure) | biocidal control of D. nigrificans ([1]; third study, 60 minutes, 100 ppm (2 of 3 replicates), 200 ppm, 300 ppm (2 of 3 replicates))
NEG: D. nigrificans Growth Results [1, 15] | D. nigrificans Growth Results [1, 19] | D. nigrificans Growth Results [1, 22] | D. nigrificans Growth Results [1, 24] | D. nigrificans Growth Results [1, 25] | D. nigrificans Growth Results [1, 28] | D. nigrificans Growth Results [1, 31] | D. nigrificans Growth Results [1, 32] | D. nigrificans Growth Results ([1]; third study, 200 ppm, 30 minutes exposure) | D. nigrificans Growth Results ([1]; third study, 200 ppm, 60 minutes exposure) | D. nigrificans Growth Results ([1]; third study, 300 ppm, 10 minutes exposure) | D. nigrificans Growth Results ([1]; third study, 300 ppm, 30 minutes exposure)
no biocidal activity: biocidal activity against D. nigrificans ([1]; second study, 10 minutes exposure, any of the concentrations)
about 8.2: pKa [3]
NEG and +: D. nigrificans Growth Results [1, 18] | D. nigrificans Growth Results [1, 27] | D. nigrificans Growth Results ([1]; third study, 100 ppm, 60 minutes exposure) | D. nigrificans Growth Results ([1]; third study, 300 ppm, 60 minutes exposure)
at least equivalent in performance: biocidal efficacy against D. vulgaris compared with the glutaraldehyde treatment [2]
no biocidal control: biocidal control of D. nigrificans ([1]; first study, 1 ppm, 5 ppm or 10 ppm, any of the exposure times)
+: D. nigrificans Growth Results [1, 4] | D. nigrificans Growth Results [1, 5] | D. nigrificans Growth Results [1, 6] | D. nigrificans Growth Results [1, 7] | D. nigrificans Growth Results [1, 8] | D. nigrificans Growth Results [1, 9] | D. nigrificans Growth Results [1, 10] | D. nigrificans Growth Results [1, 11] | D. nigrificans Growth Results [1, 12] | D. nigrificans Growth Results [1, 13] | D. nigrificans Growth Results [1, 14] | D. nigrificans Growth Results, Neutral Control [1, 16] | D. nigrificans Growth Results [1, 17] | D. nigrificans Growth Results [1, 20] | D. nigrificans Growth Results [1, 21] | D. nigrificans Growth Results [1, 23] | D. nigrificans Growth Results [1, 26] | D. nigrificans Growth Results, Neutral Control [1, 29] | D. nigrificans Growth Results [1, 30] | D. nigrificans Growth Results ([1]; third study, 100 ppm, 10 minutes exposure) | D. nigrificans Growth Results ([1]; third study, 200 ppm, 10 minutes exposure) | D. nigrificans Growth Results, Neutral Control ([1]; third study, 300 ppm peracetic acid neutralized in D/E neutralizing broth before inoculation)
demonstrated biocidal activity: biocidal activity against D. nigrificans ([1]; second study, 1 hour exposure, 75 ppm, 100 ppm (1 of 2 replicates), 200 ppm) | biocidal activity against D. nigrificans ([1]; third study, 30 minutes, 100 ppm (2 of 3 replicates), 200 ppm, 300 ppm)
+ and NEG: D. nigrificans Growth Results ([1]; third study, 100 ppm, 30 minutes exposure)
exhibited biocidal control: biocidal control of D. nigrificans ([1]; third study, ten minutes, 300 ppm)
did not exhibit biocidal activity: biocidal activity against D. nigrificans ([1]; third study, ten minutes, 100 and 200 ppm)
